# Assay results published in patent publication US5413915A (priority 1991, dated 1995).
# Read-outs that look alike come from different tables or passages of the source. Marks after values point to notes of the source that are not given here.
# Columns and labels:
# [1] = cited from earlier work; for E1/2: literature (Kemula and Axt); for Em7: midpoint redox potential
# rat liver microsomes [2] = format: biochemical; design: unit not given here
# [3] = test system: benzo(a)pyrene-induced rat liver microsomes; assay: Vapor exposure of detection elements in continuous flow chamber (Example 10); format: biochemical
# Procedure: Detection elements of the present invention were prepared in the following manner. 13 mg PRA dissolved in 9.8 mL 0.1M TRISMOPS buffer (pH=7.4) and 3.2 mL ethanol, was bleached with 71 mg solid sodium sulfite. 0.05 mL Aliquots of the leuco-dye solution were plied to sheets of transparency film, and were air dried for one hour. […] After drying in air, the test spots were cut and mounted in 35 mm tissue culture dishes, then stored at -20° C. until ready for use. Detection elements were visually clear, with a slight flesh tone.
# Vapor exposures of detection elements to the carcinogen chloromethyl methyl ether (CH3 --O--CH2 Cl) were carried out at ambient temperature,pressure, and humidity conditions in a continuous flow chamber. Air, metered at a flow rate of 1 L/min, was passed through a flask containing 2.0 mL of a rapidly stirred solution of CH3 --O--CH2 Cl in ethanol. After a glass wool plug to remove entrained liquid mists, the loaded air stream entered a 10 mm diameter tube into which the detection elements were mounted, without pre-moistening, parallel to the air flow. Flow conditions were calculated to be laminar (estimated Reynolds number=150) under these conditions. Exposure was conducted for ten minutes, after which the detection elements were removed and analyzed colorimetrically by taping to the sample beam exit slit of a double-beam spectrophotometer, and scanning the absorption spectrum versus an unexposed detection element affixed to the reference beam. At one exemplary test condition, in which the initial solution concentration of CH3 --O--CH2 Cl was 1.2M, 0.4 mL of the starting solution was recovered at the end of the exposure period. Based on both material balance and Raoult's law calculations, a single value of approximately 5200 ppm was determined for the airborne concentration of CH3 --O--CH2 Cl during the exposure. […] NADPH oxidation, equivalent to 0.4 mM or approximately 20% of the total NADPH, occurred during the 10-minute exposure, but ceased thereafter. By contrast, leuco-dye oxidation continued to intensify for some 2-4 hours, to a final level of about 0.5 mM in the detection element.
# In similar experiments to FIG. 7, but in which the airborne concentration of CH3 --O--CH2 Cl was adjusted by lowering its solution concentration, color development is proportional to delivered dose, both by direct liquid administration and vapor exposure. […] For a 10-minute exposure, approximately 0.1% of the total CH3 --O--CH2 Cl in the air stream is absorbed and reacted by detection elements mounted parallel to the air flow.
# Salmonella typhimurium = conditions: cited from earlier work
# [4] = in vivo; cited from earlier work
# [5] = in vivo; cited from earlier work; remark: listed apart in the source
# [6] = Direct reaction of chemicals with the indicator leuco dye; conditions: without metabolic activation
# rat liver microsomes [7] = assay: Color development in detection elements with different leuco dyes (Table 2); format: biochemical; conditions: applied dose 10 μmol (formaldehyde 1 μmol); for New Color Development, NBTZ: unexposed control also Black
# Procedure: Solutions containing 0.5 mM of the respective dyes in 0.1 M TRIS buffer, pH=7.4 (except for nitro blue tetrazolium, 5.0 mM in 50% ethanolic TRIS, pH=7.4) were bleached with a few crystals of sodium sulfite or sodium dithionite, then plied in 0.02 mL aliquots as test spots on a clear sheet of transparency film. Spontaneous color development in air was noted (Table 2). Subsequently, a suspension of rat liver microsomes containing 1 mM NADPH and 1 mg/mL gelatin in 0.1 M TRIS-MOPS buffer (pH=7.7) was plied in 0.05 mL aliquots over the dried leuco-dye test spots. After drying, color development condition was noted, and the test spots saved for exposure tests to chemical substances (Table 2). Exposures were carried out by layering 0.01 mL of 0.1-1.0 M solutions of test chemical substances onto the test spots, and changes in color noted over time.
# microsomal protein = assay: In vitro microsomal activation of hydrazine: leuco dye oxidation (Example 9); format: biochemical; conditions: 0.5 mM hydrazine hydrate
# Procedure: Test of leuco pararosaniline color formation and NADPH redox states, as a function of time after hydrazine addition, was conducted in vitro, and UV-visible absorbance changes monitored. All systems were aerobic (at least 0.2 mM O2). 0.03 mM Pararosaniline was reduced by addition of 0.1 mM sodium sulfite in 0.1 M 10 tris(hydroxymethyl-)aminomethane buffer (pH=7.5), and 0.3 mM NADPH with approximately 0.5 mg/mL microsomal protein (curves indicated with "+m"). At time=0, hydrazine hydrate (pH=7.5) was added to a final concentration of 0.5 mM. […] Approximately 60% of the leuco dye was oxidized (0.02 mM) during the reaction, and roughly twice that amount of […].
# rat liver microsomes [8] = assay: Color development in detection elements with different leuco dyes (Table 2); format: biochemical
# rat liver microsomes [9] = format: biochemical; design: key: Positive: the development of coloration denoted a positive response; Negative: the absence of such coloration denoted a negative response
# rat liver microsomes [10] = assay: Colorimetric reactions of constituents in bi-layer film (Example 1); format: biochemical; conditions: no microsomes, no NADPH, bottom PRA-reduced (samples 5, 6)
# Procedure: In order to establish the color development behavior of various constituents employed in the invention alone and in several combinations, including two selected test chemicals, seven separate bi-layer film spots were prepared using an otherwise similar gelatin binder medium. The bottom layer of these spots contained reduced pararosaniline (PRA) in all instances except sample 7 wherein the oxidized PRA was substituted to illustrate the coloration of that constituent. An ascorbate salt was selected as typical of a benign test chemical, while benzo(a)pyrene was selected as a representative known carcinogen. The color behavior of the various samples was observed and identified in the following Table 3 together with the compositions of the samples tested.
# [11] = 10-minute vapor exposure, approximately 5200 ppm
compound,measurement,setting,value
methyl violet,E1/2,[1],approximately -0.75 V
COCCl [Chloromethyl methyl ether],"Detector Response, threshold dose",rat liver microsomes [2],0.1
same,NADPH oxidation in detection element,[3]; [11],0.4 mM
same,"NADPH oxidation, share of the total NADPH",[3]; [11],approximately 20%
same,Time over which leuco-dye oxidation continued to intensify,[3]; after 10-minute exposure,2 to 4 h
same,"Leuco-dye oxidation, final level in the detection element","[3]; after 10-minute exposure, approximately 5200 ppm",about 0.5 mM
same,Mutagenicity,Salmonella typhimurium,+
same,Tumorigen Activity,[4],+
same,Teratogen Activity,[5],+
OO [H2 O2],"Detector Response, threshold dose",rat liver microsomes [2],1-2
same,Direct reaction with the indicator leuco dye,[6],react directly with the indicator dye
same,Mutagenicity,Salmonella typhimurium,+
same,"Tumorigen Activity, assignment based on IARC reports",[4],+
same,Teratogen Activity,[5],-
NN [Hydrazine],"Detector Response, threshold dose",rat liver microsomes [2],0.1-20
same,"New Color Development, NBTZ",rat liver microsomes [7],Black
same,Leuco dye oxidized during the reaction,microsomal protein,0.02 mM
same,Time to asymptote of leuco-dye oxidation and NADPH reduction,microsomal protein,2.0 to 2.5 h
same,Leuco dye oxidized during the reaction,"microsomal protein; 0.03 mM PRA, 0.3 mM NADPH, microsomes",Approximately 60%
same,"Gain of sensitivity, 50%:50% BaP-induced and uninduced microsomes versus uninduced",cytochrome P450IA1,approximately 10 fold
same,"Loss of sensitivity, BNF-induced versus uninduced microsomes",cytochrome P450IA1,20-50 fold
same,Color of detection elements with leuco methylene blue in combination with pararosaniline,rat liver microsomes [8]; exposure to hydrazine,magenta color
same,Color of detection elements using leuco malachite green,"rat liver microsomes [8]; exposure to hydrazine solutions, separate tests",visually detectable green color
same,Em7,[1],-0.73 V
same,Mutagenicity,Salmonella typhimurium,+
same,Tumorigen Activity,[4],+
same,Teratogen Activity,[5],+
CC1=CC(=O)c2ccccc2C1=O [Menadione],"Detector Response, threshold dose",rat liver microsomes [2],0.01
same,Invention Response,rat liver microsomes [9],Positive
same,"New Color Development, Methyl Green leuco dye",rat liver microsomes [7],None
same,"New Color Development, Methyl Violet leuco dye",rat liver microsomes [7],"None^a,b"
same,"New Color Development, Naphthol Blue-Black leuco dye",rat liver microsomes [7],None^b
same,"New Color Development, Nile Blue A leuco dye",rat liver microsomes [7],None^b
same,"New Color Development, Safranin O leuco dye",rat liver microsomes [7],None
same,"New Color Development, NBTZ",rat liver microsomes [7],Black
same,Mutagenicity,Salmonella typhimurium,+
same,Carcinogenic Status,[4],Possible
same,Tumorigen Activity,[4],+^e
same,Teratogen Activity,[5],+
dichromate,Direct reaction with the indicator leuco dye,[6],react directly with the indicator dye
[Cd+2] [Cd(II)],"Dose-response shift, BNF-induced detection elements versus uninduced controls",cytochrome P450IA1; compared with the shift seen for hydrazine,less significantly
same,Mutagenicity,Salmonella typhimurium,+
same,"Tumorigen Activity, assignment based on IARC reports",[4],+
same,Teratogen Activity,[5],+
CN(C)c1ccc(C(=C2C=CC(=[N+](C)C)C=C2)c2ccccc2)cc1 [malachite green],E1/2,[1],-0.55 V
C=O [Formaldehyde],"Detector Response, threshold dose",rat liver microsomes [2],0.01
same,Invention Response,rat liver microsomes [9],Positive
same,"New Color Development, Methyl Violet leuco dye",rat liver microsomes [7],Violet
same,"New Color Development, Naphthol Blue-Black leuco dye",rat liver microsomes [7],None
same,"New Color Development, Nile Blue A leuco dye",rat liver microsomes [7],Blue
same,"New Color Development, Safranin O leuco dye",rat liver microsomes [7],None
same,"New Color Development, NBTZ",rat liver microsomes [7],Black
same,Direct reaction with the indicator leuco dye,[6],react directly with the indicator dye
same,Mutagenicity,Salmonella typhimurium,-
same,"Mutagenicity, direct-acting mutagen",Salmonella typhimurium,+
same,Carcinogenic Status,[4],Probable
same,Tumorigen Activity,[4],+
same,Teratogen Activity,[5],+
Nile Blue A,Em7,[1],-0.12 V
Cc1cc2nc3cc(C)c(N)cc3[n+](-c3ccccc3)c2cc1N.[Cl-] [Safranin O],Em7,[1],-0.28 V
"O=C(O)CI [ICH2 COOH, iodoacetic acid]","New Color Development, Methyl Green leuco dye",rat liver microsomes [7],Green
same,"New Color Development, Methyl Violet leuco dye",rat liver microsomes [7],Purple
same,"New Color Development, Naphthol Blue-Black leuco dye",rat liver microsomes [7],None
same,"New Color Development, Safranin O leuco dye",rat liver microsomes [7],None
same,"New Color Development, NBTZ",rat liver microsomes [7],Black
same,Direct reaction with the indicator leuco dye,[6],react with the leuco dye to give colored products
same,Direct reaction with the indicator leuco dye,[6]; listed as iodoacetate,react directly with the indicator dye
Oc1ccccc1 [Phenol],"Detector Response, threshold dose",rat liver microsomes [2],0.02
same,Invention Response,rat liver microsomes [9],Positive
same,"Dose-response shift, BNF-induced detection elements versus uninduced controls",cytochrome P450IA1,less significantly
same,Carcinogenic Status,[4],Possible
same,Tumorigen Activity,[4],-
same,Teratogen Activity,[5],-
ClC=C(Cl)Cl [Trichloroethylene],"Detector Response, threshold dose",rat liver microsomes [2],150
same,"Dose-response shift, BNF-induced detection elements versus uninduced controls",cytochrome P450IA1,less significantly
same,Mutagenicity,Salmonella typhimurium,+
same,Tumorigen Activity,[4],+
same,Teratogen Activity,[5],+
"O=C1O[C@H]([C@@H](O)CO)C(O)=C1O [free ascorbic acid, ascorbic acid]",COLOR REACTION,rat liver microsomes [10],color reaction occurs
O=S([O-])S(=O)[O-].[Na+].[Na+] [sodium dithionite],Em7,[1],< -0.5 V
"CN(C)c1ccc(C(=C2C=CC(=[N+](C)C)C=C2)c2ccc([N+](C)(C)C)cc2)cc1.[Cl-].[Cl-] [Methyl Green, methyl green]",E1/2,[1],approximately -0.55 V
"CN(C)c1ccc2nc3ccc(=[N+](C)C)cc-3sc2c1 [Methylene Blue (USP), Methylene Blue]",Em7,[1],+0.01 V
same,Mutagenicity,Salmonella typhimurium,+
same,Tumorigen Activity,[4],-
same,Teratogen Activity,[5],-
